Test results as given in patent US8338410B2, “Neuroprotective compounds and pharmaceutical compositions comprising them” (Biocodex, priority 2005, dated 2012).

Legend:
[1] = tested on: cortical neurones in the presence of astrocytes in culture; assay: Prior cytotoxicity, microscopic observation after 48 hours; assay type: cell-based; details: 100 μM, 48 hours incubation
Description: • Cell type: Initial culture of cortical neurones from 14 day rat embryos and initial culture of cortical astrocytes from newborn rats. • Culture medium: DMEM-Ham F12 (Invitrogen 21331020) • B27 2% (invitrogen 17504044) • L-glutamine 2 mM (Invitrogen 25030024) • Penicillin 50 UI/ml—Streptomycin 50 μg/ml (Invitrogen 15070063) • Nerve Growth Factor 10 ng/ml (NGF, Invitrogen 13290.010) • Survival medium: MEM (Invitrogen 21090022) • L-glutamine 2 mM (Invitrogen 25030024) • Penicillin 50 UI/ml—Streptomycin 50 μg/ml (Invitrogen 15070063) • Supplement N2 (Invitrogen 17502-048) 1.2 Prior Cytotoxicity • Platelets: 96 wells • Culture time: 8 days • Cells/well: cortical neurones+astrocytes • Product range: from 100 μM then ratio 3 • Replicates: 3 • Cell/product contact: 48 hours • Evaluation parameters: microscopic observation and MTT hydrolysis. • MTT: 3-(4,5-dimethylthiozol-2-yl)-2,5-diphenyltetrazolium bromide 1.3 Treatment and Analysis of the Network of Extensions Marked with Antineurofilament Antibody
A first experiment was carried out (conventional test used to measure the level of cell survival) in order to investigate the cytotoxicity of etifoxine in relation to cortical neurones in the presence of astrocytes in culture and thus to determine the maximum non-toxic concentration of etifoxine.

[2] = tested on: mice subjected to hypobaric hypoxia; assay: Hypobaric hypoxia in mice (survival time); assay type: in vivo, NMRI male mice; details: mice; for Percentage variation / Survival time in seconds (m ± sem): hypobaric hypoxia 160 mmHg
Description: 1.1 Hypobaric Hypoxia in Mice
NMRI male mice from Janvier weighing between 25 and 30 grams were used after acclimatisation in the animal house for at least 7 days (t°=22±2° C.; humidity 50±20%; feed UAR “A04” SAFE (Augy, France) and tap water ad libitum; 12 hour night and day cycle (light from 7 a.m. to 7 p.m.).
The unfasting […] were distributed at random into lots of 10.
The protocol of Nakaniski et al. (1973) Life Sciences, 13, 467-474 was adapted for the purposes of the model.
Each mouse was placed in a dessicator (hermetically sealed enclosure) in which atmospheric pressure was reduced from 760 to 160 mmHg using a water pump. This pressure reduction was carried out in one minute and caused death of the control animals in approximately 1 minute.
The survival time of the animal, which corresponded to the difference between the time to death of the mouse assessed by respiratory arrest less the time required to induce the hypoxia was then noted.
The products under investigation were administered intraperitoneally (i.p.) (0.1 ml/10 g), 30 minutes before inducing hypobaric hypoxia, or orally (0.1 ml/10 g p.o.) 1 hour before hypoxia.
Etifoxine hydrochloride was dissolved in 1% Tween 80. The potassium cyanide (Merck) was dissolved in 0.9% NaCl.
The statistical test used was a one-factor analysis of variance to determine the treated groups, which differed from the control group receiving the vehicle, at a threshold of 5%.

[3] = tested on: mice subjected to histotoxic hypoxia induced by potassium cyanide; assay: KCN hypoxia (i.p.) in mice (survival time); assay type: in vivo, CD1 male mice; details: KCN 15 mg/kg i.p.
[4] = tested on: rats subjected to histotoxic hypoxia induced by potassium cyanide; assay: KCN (i.v.) hypoxia in rats (survival time); assay type: in vivo, Wistar male rats; details: rats, KCN 4 mg/kg i.v.
[5] = compound i.p. dose 3, first i.p. series
[6] = compound i.p. dose 10, first i.p. series
[7] = compound i.p. dose 30, first i.p. series (control 106 ± 9)
[8] = compound i.p. dose 30, second i.p. series (control 91 ± 4)
[9] = compound i.p. dose 50, second i.p. series
[10] = compound i.p. dose 75, second i.p. series

For `CCNC1=Nc2ccc(Cl)cc2C(C)(c2ccccc2)O1.Cl` (centres unmarked) [etifoxine, 6-chloro-2-ethylamino-4-methyl-4-phenyl-4H-[3,1]benzoxazine hydrochloride], the “astrocyte mortality, visual examination with a microscope” value [1] was “astrocyte mortality was observed”, the Percentage variation ([2]; i.p. 3 mg/kg) was “+12%” and the “Survival time in seconds (m ± sem)” value ([2]; i.p. 3 mg/kg) was 64.5 ± 3.4 s. The Percentage variation ([2]; i.p. 10 mg/kg) was “+15%”, the “Survival time in seconds (m ± sem)” value ([2]; i.p. 10 mg/kg) was 66.1 ± 3.0 s and the Percentage variation ([2]; i.p. 30 mg/kg) was “+42%”. The “Survival time in seconds (m ± sem)” value ([2]; i.p. 30 mg/kg) was 81.8 ± 4.6 s, the Percentage variation ([2]; i.p. 50 mg/kg) was “+141%” and the “Survival time in seconds (m ± sem)” value ([2]; i.p. 50 mg/kg) was 138.5 ± 23.3 s. The Percentage variation ([2]; i.p. 75 mg/kg) was “+130%”, the “Survival time in seconds (m ± sem)” value ([2]; i.p. 75 mg/kg) was 132.0 ± 21.6 s and the Percentage variation ([2]; p.o. 30 mg/kg) was “+47%”. For the same compound, the “Survival time in seconds (m ± sem)” value ([2]; p.o. 30 mg/kg) was 81.5 ± 4.5 s, the Percentage variation ([2]; p.o. 100 mg/kg) was “+72%” and the “Survival time in seconds (m ± sem)” value ([2]; p.o. 100 mg/kg) was 95.3 ± 5.6 s. For the same compound, the Percentage variation ([2]; p.o. 200 mg/kg) was “+79%”, the “Survival time in seconds (m ± sem)” value ([2]; p.o. 200 mg/kg) was 99.5 ± 2.7 s and the Percentage variation ([2]; p.o. 300 mg/kg) was “+108%”. The “Survival time in seconds (m ± sem)” value ([2]; p.o. 300 mg/kg) was 115.5 ± 8.6 s, the time to death ([2]; hypobaric hypoxia, over 30 mg/1 kg i.p. or p.o.) was “significantly increased the time to death” and the Percentage variation [3, 5] was “+15%”. For the same compound, the “Survival time in seconds (m ± sem)” value [3, 5] was 122 ± 7 s, the Percentage variation [3, 6] was “+7%” and the “Survival time in seconds (m ± sem)” value [3, 6] was 113 ± 5 s. For the same compound, the Percentage variation [3, 7] was “+22%”, the “Survival time in seconds (m ± sem)” value [3, 7] was 129 ± 11 s and the Percentage variation [3, 8] was “+19%”. For the same compound, the “Survival time in seconds (m ± sem)” value [3, 8] was 108 ± 4 s, the Percentage variation [3, 9] was “+36%” and the “Survival time in seconds (m ± sem)” value [3, 9] was 124 ± 8 s. The Percentage variation [3, 10] was “+46%”, the “Survival time in seconds (m ± sem)” value [3, 10] was 133 ± 6 s and the Percentage variation ([3]; compound p.o. dose 100) was −13%. The “Survival time in seconds (m ± sem)” value ([3]; compound p.o. dose 100) was 94 ± 6 s, the Percentage variation ([3]; compound p.o. dose 200) was “+14%” and the “Survival time in seconds (m ± sem)” value ([3]; compound p.o. dose 200) was 123 ± 12 s. The Percentage variation ([3]; compound p.o. dose 300) was −6%, the “Survival time in seconds (m ± sem)” value ([3]; compound p.o. dose 300) was 102 ± 7 s and the survival time ([3]; oral administration) was “did not significantly affect survival time”. For the same compound, the time to death ([3]; over 50 mg/kg i.p.) was “significantly increased the time to death”, the Percentage variation ([4]; compound i.p. dose 30) was “+7%” and the “Survival time in seconds (m ± sem)” value ([4]; compound i.p. dose 30) was 60.3 ± 2.0 s. The Percentage variation ([4]; compound i.p. dose 50) was “+90%”, the “Survival time in seconds (m ± sem)” value ([4]; compound i.p. dose 50) was 107.3 ± 6.1 s and the Percentage variation ([4]; compound i.p. dose 75) was “+155%”. For the same compound, the “Survival time in seconds (m ± sem)” value ([4]; compound i.p. dose 75) was 144.3 ± 11.5 s, the Percentage variation ([4]; compound p.o. dose 50) was “+7%” and the “Survival time in seconds (m ± sem)” value ([4]; compound p.o. dose 50) was 59.5 ± 2.1 s. For the same compound, the Percentage variation ([4]; compound p.o. dose 100) was “+8%”, the “Survival time in seconds (m ± sem)” value ([4]; compound p.o. dose 100) was 60.1 ± 1.2 s and the Percentage variation ([4]; compound p.o. dose 200) was “+15%”. The “Survival time in seconds (m ± sem)” value ([4]; compound p.o. dose 200) was 63.9 ± 2.0 s and the time to death ([4]; from 50 mg/kg i.p. and 200 mg/kg p.o.) was “significantly increased the time to death”.
